Data set [1] in a line: Stability of the working solution (4°C for 1 month). It is filed as physicochemical.
Data set [2] is described as follows: Stability of analytes in rat plasma (auto-sampler, freeze-thaw, room temperature, long-term). As to conditions: for Autosampler for 24 h Accuracy (%): autosampler 24 h; for Room temperature for 24 h Accuracy (%): room temperature 24 h; for Freeze thaw cycles Accuracy (%): three freeze-thaw cycles.
Procedure: The stability of analytes in plasma was evaluated by analyzing 4 QC samples (n = 6). The stability was included auto-sampler stability (keeping the sample in auto-sampler for 24 h), three times of freeze-thaw cycles stability (freezing cycle at −80°C, thawing cycle at room temperature), room temperature stability (storing samples at room temperature for 24 h), long-term stability (storing samples at −80°C for 1 month). […] Accompanying curve was established when testing the sample, calculate and compare the ratio of the actual measured concentration to the theoretical concentration, expressed in accuracy and RSD.

Consider `CC(C)=CCC[C@](C)(O)[C@H]1CC[C@]2(C)[C@@H]1[C@H](O)C[C@@H]1[C@@]3(C)CC[C@H](O)C(C)(C)[C@@H]3[C@@H](O[C@@H]3O[C@H](CO)[C@@H](O)[C@H](O)[C@H]3O)C[C@]12C` [ginsenoside Rh1], for which the “Working solution Accuracy (%)” value was 106.0% in data set [1] (50 ng/mL) and 95.1% in data set [1] (100 ng/mL). The “Autosampler for 24 h Accuracy (%)” value amounted to 86.5% in data set [2] (50 ng/mL), 90.8% in data set [2] (100 ng/mL), 96.5% in data set [2] (concentration 200 ng/mL) and 108.0% in data set [2] (concentration 500 ng/mL). Moreover, the “Room temperature for 24 h Accuracy (%)” value in data set [2] (50 ng/mL) was 100.0%; in data set [2] (100 ng/mL), 96.5%; in data set [2] (concentration 500 ng/mL), 98.7%. The “−80°C for 1month Accuracy (%)” value in data set [2] (50 ng/mL, −80°C 1 month) is 107.0%; in data set [2] (100 ng/mL, −80°C 1 month), 93.5%; in data set [2] (−80°C for 1 month, concentration 500 ng/mL), 114.0%. Moreover, the “Freeze thaw cycles Accuracy (%)” value in data set [2] (100 ng/mL) stood at 100.0%; in data set [2] (concentration 500 ng/mL), 94.1%.
In the case of `COc1ccc(-c2coc3cc(O[C@@H]4O[C@H](CO)[C@@H](O)[C@H](O)[C@H]4O)ccc3c2=O)cc1` [ononin], the “Working solution Accuracy (%)” value is 84.3% in data set [1] (1.56 ng/mL), 87.5% in data set [1] (12.5 ng/mL), 104.0% in data set [1] (100 ng/mL) and 91.3% in data set [1] (500 ng/mL). The “Room temperature for 24 h Accuracy (%)” value in data set [2] (1.56 ng/mL) stood at 98.6%; in data set [2] (12.5 ng/mL), 109.0%; in data set [2] (100 ng/mL), 86.9%; in data set [2] (500 ng/mL), 93.2%. Also, the “Freeze thaw cycles Accuracy (%)” value is listed as 95.6% in data set [2] (1.56 ng/mL), 108.0% in data set [2] (12.5 ng/mL) and 99.0% in data set [2] (100 ng/mL). For the same compound, the “−80°C for 1month Accuracy (%)” value in data set [2] (1.56 ng/mL, −80°C 1 month) was determined as 111.0%; in data set [2] (12.5 ng/mL, −80°C 1 month) it was 92.2%; in data set [2] (500 ng/mL, −80°C 1 month), 98.2%. Besides, the “Autosampler for 24 h Accuracy (%)” value in data set [2] (12.5 ng/mL) was 95.3%; in data set [2] (100 ng/mL) it was 94.4%; in data set [2] (500 ng/mL), 104.0%.
For `O=c1c(O[C@@H]2O[C@H](CO)[C@H](O)[C@H](O)[C@H]2O)c(-c2ccc(O)c(O)c2)oc2cc(O)cc(O)c12` [hyperoside], the figures for the “Working solution Accuracy (%)” value in data set [1] (12.5 ng/mL), in data set [1] (100 ng/mL) and in data set [1] (500 ng/mL) were 92.1%, 91.2% and 95.0%, respectively. For the same compound, the “Autosampler for 24 h Accuracy (%)” value was 111.0% in data set [2] (1.56 ng/mL), 101.0% in data set [2] (12.5 ng/mL), 90.5% in data set [2] (100 ng/mL) and 95.8% in data set [2] (500 ng/mL). In addition, the “Room temperature for 24 h Accuracy (%)” value in data set [2] (1.56 ng/mL) is given as 91.6%; in data set [2] (100 ng/mL), 95.4%; in data set [2] (500 ng/mL) it was 99.1%. Further, the “Freeze thaw cycles Accuracy (%)” value in data set [2] (1.56 ng/mL) turned out to be 97.6%; in data set [2] (12.5 ng/mL) it was 98.4%; in data set [2] (100 ng/mL) it was 93.5%; in data set [2] (500 ng/mL), 95.3%. The “−80°C for 1month Accuracy (%)” value in data set [2] (1.56 ng/mL, −80°C 1 month) came out at 106.0%; in data set [2] (12.5 ng/mL, −80°C 1 month), 100.0%; in data set [2] (100 ng/mL, −80°C 1 month), 88.8%.

Values taken from publication PMC10133546, “Simultaneous determination of multiple components in rat plasma by UHPLC-sMRM for pharmacokinetic studies after oral administration of Qingjin Yiqi Granules” (Frontiers in Pharmacology, 2023).
